Measured values: PMC11251039, “Harnessing cholesterol uptake of malaria parasites for therapeutic applications” (EMBO Molecular Medicine, 2024)
Where “and” joins values, the source holds several entries; their conditions need not be identical. Equal values may be shown once.

Experiments:
[1] = tested on: P. falciparum CAM3.IIREV ring stages (0–3 h post invasion); test: Plasmodium falciparum ring stage survival assay, susceptible revertant strain; assay type: cell-based
Protocol: (§1) Following tight synchronisation using sorbitol and Percoll® floatation, ring stage CAM3.II and CAM3.IIREV parasites (0–3 h post invasion) at 1% parasitaemia and 2% haematocrit were incubated with 700 nM of compounds or solvent-only controls for exactly 6 h, before removing the drug, thoroughly washing in RPMI with HEPES, and returning to culture conditions for a further 66 h. Some cells were treated with 700 nM artesunate for 72 h as a no-growth control. DNA replication (indicating growth) was measured at the specified time using SYBR Safe DNA Stain. Microscope slide smears of each condition were stained with 10% v/v Giemsa and examined under a light microscope (×1000 magnification); with ‘viable’ (morphologically normal) and ‘non-viable’ (morphologically aberrant; vacuolated or pyknotic) parasites distinguished according to standard protocol (Witkowski et al, [2013]). Images were captured using a Leica ICC50 camera, with a resolution of 76 nm per pixel, and cropped from larger images using Fiji ImageJ.
(§2) Appendix Fraser/Curtis et al.
(§3) Cells were detached from a flask using 0.25% Trypsin with 0.2 g/L EDTA (Sigma T4049) and washed with culture media containing no phenol red. Cells were incubated with a serial dilution of each compound, or media/DMSO alone. The protein synthesis inhibitor cycloheximide (Sigma 01810) at 10 µg/mL was used as a positive control to determine background absorbance. 5,000 cells were seeded in each well. After 96 hours, 0.45 mg/mL methylthiazolyldiphenyl-tetrazolium bromide (MTT; Sigma M2128) was added and incubated for a further two hours, before mixing 1.1:1 with 10% w/v sodium dodecyl sulfate (SDS) to solubilise crystals and freezing the plate at -18 °C to stop the assay. Plates were defrosted at room temperature and absorbance was read at 570 nm in an Infinite M1000 pro plate reader […]
(§4) Plasmodium falciparum Ring Stage Survival Assay
(§5) Ring stage survival assays were conducted according to standard protocols with some modifications (27, 28). CAM3.11 and CAM3.11REV parasites were sorbitol synchronised twice, 12 hours apart, and then incubated for a further 30 hours until the majority of the parasites were mature schizonts (with clearly separated nuclei). Pelleted RBCs were incubated at 37 °C with heparinised RPMI for 15 minutes, and then centrifuged over 75% Percoll® in PBS for 15 minutes at 1,000 g. Mature schizonts were collected, washed with warm RPMI, and cultured for exactly three hours with fresh uRBCs and culture media. After 3 hours, the cultures were sorbitol synchronised and incubated in duplicate with 700 nM of artesunate, PAYb076a, GGA5, HJB8a53, a DMSO solvent-only control or media alone for exactly six hours, before removing the drug, washing in RPMI, and returning to culture conditions. Samples of each cell suspension were transferred to a -18 °C freezer at the start of the assay (time = 0) or treated for the entire 72 hours with 700 nM artesunate to determine background fluorescence under no-growth conditions. After a further 66 hours of incubation (totalling 72 hours), cells were […]
(§6) resuspended, and a sample from each well was transferred to a fresh plate and frozen at -18 °C.
(§7) Microscope slide smears were made using the remaining cells and stained with 10% v/v Giemsa. Plates were thawed and SYBR Safe DNA Gel Stain (final concentration 1/10,000) diluted in lysis buffer (as above) was added for DNA detection at 490 nm excitation / 520 nm emission on a FLUOstar Optima fluorescence plate reader. Parasite proliferation and viability were also assessed using Giemsa-stained smears examined under a light microscope (1,000× magnification); with ‘viable’ and ‘non-viable’ (vacuolated or pyknotic) parasites distinguished according to standard protocol. Images were captured using a Leica ICC50 camera, with a resolution of 76 nm per pixel.
(§8) Growth inhibition data were normalised by subtracting background fluorescence, […]

[2] = tested on: P. falciparum CAM3.II ring stages (0–3 h post invasion); test: Plasmodium falciparum ring stage survival assay, resistant strain; assay type: cell-based
Protocol: as §1, §2, §3, §4, §5, §6, §7, §8

With `CC(C)OC(=O)CCC(=O)O[C@H]1CC[C@H]2[C@@H]3CC=C4C[C@@H](O)CC[C@]4(C)[C@H]3CC[C@]12C` [C-17-link] the “Ring stage survival, growth” value ([1]; 700 nM, 6 h treatment, 66 h further growth, CAM3.IIREV susceptible) was “did not significantly impact the growth”, the “Ring stage survival, individual data points (Figure 4C)” value ([1]; CAM3.11REV, replicate experiments, listed as HJB8a53) was 98.68 and 105.5 and 54.94 and 92.61 and the “Ring stage survival, growth” value ([2]; 700 nM, 6 h treatment, 66 h further growth, CAM3.II resistant) was “did not significantly impact the growth”. For the same molecule, the “Ring stage survival, individual data points (Figure 4C)” value ([2]; CAM3.11, replicate experiments, listed as HJB8a53) was 67.82 and 103.7 and 86.39 and 70.09.
